Test results as given in US10414798B2, “Cancer stem cell targeting peptide and use thereof” (AGRICULTURAL TECHNOLOGY RESEARCH INSTITUTE, priority 2015, dated 2019).
“Also recorded” adds a separate entry of the source.

What was measured:
[1] = Glycan microarray analysis; assay type: binding; settings: biotin-CSC HP, Cy3-streptavidin
Experimental: (§1) N-terminus biotin conjugated CSC HPs with the sequences listed in Table A below were synthesized by GeneDirex with purities higher than 95%. Biotin-CSC HPs were dissolved in DMSO to prepare 10 mg/mL stocks.
Glycan Array 100 microchips (Cat. # GA-Glycan-100) were purchased from RayBiotech and were processed following the manufacturer's instruction with some modifications. Briefly, after blocking with 400 μL Sample Diluent (Item E) at room temperature for 30 minutes, the biotin conjugated CSC HPs were diluted to 1 μg/400 μL with Sample Diluent, and hybridization reactions were carried out at room temperature for 2 hours. After washing, 400 μL of 1×Cy3-conjugated streptavidin was added to each well. The incubation chamber was covered with the plastic adhesive strips and the slide was covered with aluminum foil to avoid exposure to light during incubating in a dark room. The slide was incubated with Cy3-conjugated streptavidin at room temperature for 1 hour with gentle rocking or shaking. After thorough washing, the slide was drained completely, and the fluorescent signals on it were read by laser scanner Axon GenePix. The relative intensity on glycan X was defined as (average of X−negative control)/(positive control−negative control)×100%.
The CSC HPs developed could distinguish CSCs from CCs, and this phenomenon was found cross-species between human and mouse. It was very interesting to figure out the targets of these CSC HPs. There were no detectable fluorescent signals of FITC-CSC HPs remaining on the nitrocellulose membrane that had been blotted with CSC membrane proteins separated by SDS PAGE (data not shown). Glycan microarray (Glycan Array 100 microchips), on which 100 kinds of oligosaccharides were spotted 4 times, was utilized to analyze the possibilities of the interactions between oligosaccharides and CSC HPs. Biotin-CSC HPs as listed in Table 2 were hybridized with glycans on chips. The biotin-CSC HPs trapped on the chips were explored with Cy3-conjugated streptavidin, and the fluorescent signals on it were read by a laser scanner. Two major patterns were illustrated in FIGS. 3A-3F. The first one included glycan 16 (Gal-β-1,4-Glc-β-), 18 (Gal-α-1,4-Gal-β-1,4-Glc-β-), and 26 (GalNAc-β-1,3-Gal-α-1,4-Gal-β-1,4-Glc-β-) Globo series (FIG. 3A). Typical cases were CSC HP-1 and CHC HP-hP1 (FIG. 3C). […] The typical cases were CSC HP5, CSC HP6, CSC HP7, and CSC HP9 (FIG. 3C). Two malignancy and metastasis glycan markers, glycan 63 (Fuc-α-1,2-Gal-β-1,4-(Fuc-α-1,3)-GlcNAc-β-, also called Lewis Y epitope) and glycan 69 (Neu5Ac-α-2,6-Gal-β-1,3-(Neu5Ac-α-2,6)-GalNAc-β-), were also detected. […] Both of the two Neu5Ac-α-2,6-residues were necessary for CSC HPs binding (FIG. 3E).

CT26 CSCs [2] = test: M13 phage display selection, secondary CT26 CSC HP-library; assay type: binding, mouse; settings: from Table 1
Experimental: (§2) The M13 PhD-7 library (NEB, E8100) which contains 10^9 independent clones was purchased from New England Biolabs Inc. 10^13 plaque firming units (pfus) of M13 PhD-7 phages in 10 mL DMEM were pre-adsorbed by cancer cells in a T75 flask twice, each for 1 hour. Subsequently, the supernatant was transferred to a T25 flask containing 5×10^6 CSCs and incubated for 1 hour. The unbound and weakly associated phages were removed by centrifugation and suspension three times in DMEM/0/2% BSA. The cell pellet was suspended in 1 mL PBS containing 10^9 E. coli ER2738 and incubated in a shaker for 1 hour. Then 10 mL LB/5 mM MgCl2 was added. After being cultured over-night at 37° C., the cells were removed by centrifugation and phages in the supernatant were titrated. The aforementioned selection procedures were carried out for three rounds for EMT6 and PANC-1 to obtain the primary EMT6 CSC homing peptide (HP)- and PANC-1 CSC HP-library, respectively. Subsequently, M13 plaques were picked up to prepare the DNA for sequencing. […]
(§3) The primary CSC HP-library was selected directly once by either CT26 or Hepa1-6 CSCs to test the bias of CSC HP affinities to different kinds of cancers. […] Two new peptide sequences, KIYTTLD (CSC HP-9) (SEQ ID NO: 11) and NLQPPAY (CSC HP-12) (SEQ ID NO: 12), were read in the ESC unbound fraction (CSC HP-library) (Table 1).

CT26 CSCs [3] = test: Staining of CSCs with rhodamine B or fluorescein labeled CSC HPs; assay type: binding, mouse; settings: N-terminal rhodamine B or fluorescein conjugate, fluorescence
Experimental: [The procedure below names another cell line; the source lists this cell line under the same test.] (§4) 20 μg/mL of Rhodamine B labeled CSC HP1 (Rd-CSC HP-1) and CSC HP2 (Rd-CSC HP-2) as well as FITC labeled CSC HP11 (FITC-CSC HP-11) were directly used to stain EMT6 CSCs and CCs. Cells were counter-stained with DAPI.
(§5) According to the results above, CSC HP-1, CSC HP-2, CSC HP-3, CSC HP-8, CSC HP-9, CSC HP-10, and CSC HP-11 were selected and chemically synthesized with N-terminal conjugation with rhodamine B or fluorescein. […] It was of interest to determine whether these CSC HPs derived from mouse cancers could recognize human CSCs.

EMT6 CSCs = test: as above; assay type: binding, mouse; settings: N-terminal rhodamine B or fluorescein conjugate, fluorescence
Experimental: as §4, §5

Hepa1-6 CSCs [4] = test: as above; assay type: binding, mouse; settings: N-terminal rhodamine B or fluorescein conjugate, fluorescence
Experimental: [The procedure below names another cell line; the source lists this cell line under the same test.] as §4, §5

PANC-1 CSCs = test: Staining of tumorospheres with rhodamine B or fluorescein labeled CSC HPs; assay type: binding, human; settings: N-terminal rhodamine B or fluorescein conjugate, fluorescence
Experimental: [The procedure below names another cell line; the source lists this cell line under the same test.] as §4, §5

cancer cells (CCs) = test: Parallel CC experiments with labeled CSC HPs; assay type: binding, mouse; settings: N-terminal rhodamine B or fluorescein conjugate, fluorescence
Experimental: as §4, §5

Hepa1-6 CSCs [5] = test: M13 phage display selection, secondary Hepa1-6 CSC HP-library; assay type: binding, mouse; settings: from Table 1
Experimental: as §2, §3

[6] = Glycan microarray analysis, major signal pattern; assay type: binding; settings: biotin-CSC HP, Cy3-streptavidin
Experimental: as §1
Glycan Array 100 microchips (Cat. # GA-Glycan-100) were purchased from RayBiotech and were processed following the manufacturer's instruction with some modifications. Briefly, after blocking with 400 μL Sample Diluent (Item E) at room temperature for 30 minutes, the biotin conjugated CSC HPs were diluted to 1 μg/400 μL with Sample Diluent, and hybridization reactions were carried out at room temperature for 2 hours. After washing, 400 μL of 1×Cy3-conjugated streptavidin was added to each well. […] After thorough washing, the slide was drained completely, and the fluorescent signals on it were read by laser scanner Axon GenePix. […]
The CSC HPs developed could distinguish CSCs from CCs, and this phenomenon was found cross-species between human and mouse. […] The biotin-CSC HPs trapped on the chips were explored with Cy3-conjugated streptavidin, and the fluorescent signals on it were read by a laser scanner. […] Two malignancy and metastasis glycan markers, glycan 63 (Fuc-α-1,2-Gal-β-1,4-(Fuc-α-1,3)-GlcNAc-β-, also called Lewis Y epitope) and glycan 69 (Neu5Ac-α-2,6-Gal-β-1,3-(Neu5Ac-α-2,6)-GalNAc-β-), were also detected. […]

[7] = system: mouse embryonic stem cell (mESC); test: M13 phage display selection, secondary CSC/ESC HP-library (ESC bound fraction); assay type: binding
Experimental: as §2, §3

Row | Substance | binding to glycan 19 [1] | binding to glycan 26 [1] | association with CT26 CSCs (CT26 CSCs [3]) | association with EMT6 CSCs (EMT6 CSCs) | association with Hepa1-6 CSCs (Hepa1-6 CSCs [4]) | association with PANC-1 tumorospheres (PANC-1 CSCs) | detection in parallel CC experiments (cancer cells (CCs)) | signal on glycan 69 [1] | further results
1 | ATYGNLW (Cancer Stem Cell Targeting Peptide) [CSC HP-5, synthetic peptide that targets cancer stem cells] | bound strongly | – | – | – | – | – | – | – | –
2 | FSGGGNH (Cancer Stem Cell Targeting Peptide) [CSC HP-3, synthetic peptide that targets cancer stem cells] | – | weakly bound | specifically associated | specifically associated | specifically associated | definitely associated | not detectable | – | bias of CSC HP affinity to Hepa1-6 CSCs (Hepa1-6 CSCs [5]): more specific
3 | GLAPFNA (Cancer Stem Cell Targeting Peptide) [CSC HP-11, synthetic peptide that targets cancer stem cells] | – | – | specifically associated | specifically associated | specifically associated | definitely associated | not detectable | higher signals | –
4 | GMMSSPP (Cancer Stem Cell Targeting Peptide) [CSC HP-2, synthetic peptide that targets cancer stem cells] | – | – | specifically associated | specifically associated | specifically associated | definitely associated | not detectable | – | –
5 | GPSASRN (Cancer Stem Cell Targeting Peptide) [CSC HP-10, synthetic peptide that targets cancer stem cells] | – | – | specifically associated | specifically associated | specifically associated | definitely associated | not detectable | higher signals | –
6 | GSPVMSW (Cancer Stem Cell Targeting Peptide) [CSC HP-hP2, synthetic peptide that targets cancer stem cells] | – | – | – | – | – | – | – | higher signals | –
7 | SQPTWMF (Cancer Stem Cell Targeting Peptide) [CSC HP-1, synthetic peptide that targets cancer stem cells] | – | bound strongly and specifically | specifically associated | specifically associated | specifically associated | definitely associated | not detectable | – | enrichment in the ESC bound fraction [7]: further enriched; major pattern of glycan microarray signals [6]: Globo series; binding / signal on glycan 63 [1]: higher signals; also recorded: bound more strongly
8 | YHQVKPH (Cancer Stem Cell Targeting Peptide) [CSC HP-hP3, synthetic peptide that targets cancer stem cells] | – | – | – | – | – | – | – | higher signals | –

The next lines start with results.

Row | binding to glycan 19 [1] | binding to glycan 26 [1] | Substance | association with CT26 CSCs (CT26 CSCs [3]) | association with EMT6 CSCs (EMT6 CSCs) | association with Hepa1-6 CSCs (Hepa1-6 CSCs [4]) | association with PANC-1 tumorospheres (PANC-1 CSCs) | detection in parallel CC experiments (cancer cells (CCs)) | signal on glycan 69 [1] | further results
9 | – | weakly bound | ELTPLTL (Cancer Stem Cell Targeting Peptide) [CSC HP-8, synthetic peptide that targets cancer stem cells] | specifically associated | specifically associated | specifically associated | definitely associated | not detectable | – | bias of CSC HP affinity to CT26 CSCs (CT26 CSCs [2]): more specific
10 | – | bound strongly and specifically | GPKVTIW (Cancer Stem Cell Targeting Peptide) [CSC HP-hP1, synthetic peptide that targets cancer stem cells] | – | – | – | – | – | – | major pattern of glycan microarray signals [6]: Globo series; binding / signal on glycan 63 [1]: higher signals; also recorded: bound more strongly
11 | bound strongly | – | HGGVRLY (Cancer Stem Cell Targeting Peptide) [CSC HP-7, synthetic peptide that targets cancer stem cells] | – | – | – | – | – | – | –
12 | bound strongly | – | KIYTTLD (Cancer Stem Cell Targeting Peptide) [CSC HP-9, synthetic peptide that targets cancer stem cells] | specifically associated | specifically associated | specifically associated | definitely associated | not detectable | higher signals | –
13 | bound strongly | – | YHMPALM (Cancer Stem Cell Targeting Peptide) [CSC HP-6, synthetic peptide that targets cancer stem cells] | – | – | – | – | – | – | –
